Experimental data as given in paper PMC5308906 (Angewandte Chemie (International ed. in English), 2016).
No end group written: not given here.

Tests used:
[1] = molecular target: δPKC (Homo sapiens, UniProt Q05655); test: In vitro binding assay of δPKC to the peptides
[2] = test system: Rat hearts subjected to I/R; test: Langendorff ex vivo model of myocardial infarction; details: ψDrp1 alanine substitution study, n=4
[3] = test system: H9c2 cells; test: Mitochondrial ROS production; details: H9c2, ischemia and reoxygenation; peptide 2 μM
[4] = test system: H9c2 cells; format: cell-based; details: H9c2, ischemia and reoxygenation
[5] = molecular target: T1, εPKC (Homo sapiens, UniProt Q02156); test: In vitro binding assay of εPKC to the peptides; details: εPKC at ~75 μg/mL (~1 μM)
T1 sequence (Q02156 1-737): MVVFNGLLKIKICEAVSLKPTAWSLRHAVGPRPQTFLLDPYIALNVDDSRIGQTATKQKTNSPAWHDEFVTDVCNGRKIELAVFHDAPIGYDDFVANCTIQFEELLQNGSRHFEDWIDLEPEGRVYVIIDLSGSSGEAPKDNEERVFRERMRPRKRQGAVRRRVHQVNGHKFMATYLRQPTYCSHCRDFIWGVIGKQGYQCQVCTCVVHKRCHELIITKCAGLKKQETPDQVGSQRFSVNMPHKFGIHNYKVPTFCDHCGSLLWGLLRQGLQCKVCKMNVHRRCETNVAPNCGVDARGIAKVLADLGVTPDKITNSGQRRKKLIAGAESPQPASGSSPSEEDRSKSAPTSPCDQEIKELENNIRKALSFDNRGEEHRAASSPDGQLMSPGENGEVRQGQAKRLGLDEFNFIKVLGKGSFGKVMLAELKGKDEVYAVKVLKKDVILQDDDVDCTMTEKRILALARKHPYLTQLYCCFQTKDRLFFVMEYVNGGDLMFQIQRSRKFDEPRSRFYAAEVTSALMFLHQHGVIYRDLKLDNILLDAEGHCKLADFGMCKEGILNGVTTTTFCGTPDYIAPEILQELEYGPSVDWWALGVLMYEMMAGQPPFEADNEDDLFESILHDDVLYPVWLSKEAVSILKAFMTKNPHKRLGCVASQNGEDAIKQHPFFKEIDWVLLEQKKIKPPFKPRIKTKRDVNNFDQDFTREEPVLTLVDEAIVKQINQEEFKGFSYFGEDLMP

[6] = test system: phosphorylation of Drp1; test: Drp1 phosphorylation after cardiac I/R, ψDrp1 derivatives; details: hearts subjected to I/R

Sequence of δPKC (Q05655 whole entry): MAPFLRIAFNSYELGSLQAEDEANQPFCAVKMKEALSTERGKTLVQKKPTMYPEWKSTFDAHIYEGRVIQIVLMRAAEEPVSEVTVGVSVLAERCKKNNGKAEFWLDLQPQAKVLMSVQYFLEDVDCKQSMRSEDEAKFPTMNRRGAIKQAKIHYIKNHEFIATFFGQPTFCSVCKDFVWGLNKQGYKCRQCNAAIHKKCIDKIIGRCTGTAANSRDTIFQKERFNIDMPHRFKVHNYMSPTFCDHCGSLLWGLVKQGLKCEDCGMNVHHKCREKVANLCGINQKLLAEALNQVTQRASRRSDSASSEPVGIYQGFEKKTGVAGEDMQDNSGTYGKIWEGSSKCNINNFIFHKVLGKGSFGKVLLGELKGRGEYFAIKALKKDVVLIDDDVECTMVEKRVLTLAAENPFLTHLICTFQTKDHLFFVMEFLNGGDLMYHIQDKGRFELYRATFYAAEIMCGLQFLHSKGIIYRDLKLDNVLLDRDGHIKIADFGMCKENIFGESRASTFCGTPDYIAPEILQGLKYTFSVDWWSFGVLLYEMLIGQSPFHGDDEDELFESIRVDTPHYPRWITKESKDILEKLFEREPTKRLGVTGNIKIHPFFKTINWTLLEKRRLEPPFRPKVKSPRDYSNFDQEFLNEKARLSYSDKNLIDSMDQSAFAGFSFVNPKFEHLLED

Q: YTDFDE [ψDrp1-Cargo] was tested. Which Kd [1] did it give?
A: 1.4 ± 0.3 nM

Q: With “YGRKKRRQRRRGGYTDFDE-NH2 (C-terminus assumed) [ψDrp1]” as the substance, how does the “Protection from cardiac damage” value [2] read?
A: 75%

Q: What about the “Effect on excessive mitochondrial ROS production” value [3] of the same substance?
A: decreased excessive mitochondrial ROS production

Q: What about the “Effect on mitochondrial function and cell viability” value [4] of the same substance?
A: rescued mitochondrial function and cell viability

Q: For “RAAEEP-NH2 (C-terminus assumed) [ψMARCKS-Cargo]”, which “Binding to εPKC” value [5] is on record?
A: not to the another PKC isozyme, εPKC

Q: For YTAFDE-TAT [ψDrp1 Asp3 Ala], which “Protection from cardiac damage” value [2] is on record?
A: 65%

Q: What about the “Effect on Drp1 phosphorylation” value [6] of the same substance?
A: inhibited Drp1 phosphorylation
